Each structure is given as a SMILES string.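 Dose response: 5 concentrations. Exposure: 48 h. Format: 96-well plates. Endpoint: linear interpolation; highest concentration if not reached. GI50 is the concentration that inhibits growth by half.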 Active and inactive are the calls of the source. No stated cut-off is given here; in the data, active = GI50 up to about 1.1 µM and inactive = higher.

What all share (assay): NCI tumour cell line growth inhibition, 48 h
Assay [1] relates to ACHN.
For assay [2], the system named is CCRF-CEM.
Assay [3] relates to HCT-15.
Assay [4] has as its system HOP-62.
In assay [5] the test system is HOP-92.
Assay [6] concerns IGROV-1.
Assay [7] concerns Malme-3M.
Assay [8] concerns NCI-H23.
Assay [9] deals with NCI-H460.
Assay [10] has as its system SF-268.
Assay [11] deals with SK-MEL-28.
In assay [12] the test system is SK-MEL-5.
In assay [13] the test system is SN12C.
Assay [14] concerns SNB-75.
The subject of assay [15] is DU-145.
In assay [16] the test system is MDA-MB-231.
Assay [17] deals with MDA-MB-435.
For assay [18], the system named is NCI/ADR-RES.
In assay [19] the test system is T47D.

On to `N#C/C(=C\c1ccc(O)c(O)c1)C(=O)NC1CCC(CC2CCC(NC(=O)/C(C#N)=C/c3ccc(O)c(O)c3)CC2)CC1` (configuration not stated), for which the GI50 was 0.718 µM (active) in [1]; 0.293 µM (active) in [2]; 0.461 µM in [3]; 1.89 µM (inactive) in assay [4]; 1.55 µM (inactive) in [5]; 1.71 µM (inactive) in assay [6]. Also, the GI50 in [7] is 3.65 µM (inactive); in [8] it was 1.3 µM (inactive); in assay [9] it was 0.283 µM (active); in [10] it was 1.93 µM (inactive); in [11] it was 3.22 µM (inactive); in [12], 1.93 µM (inactive). Besides, the results for the GI50 in [13] and in [14] were 2.33 µM (inactive) and 0.263 µM (active), respectively.
In the case of `CCOC(=O)c1cccnc1C(OC(C)=O)OC(C)=O`, the GI50 in assay [1] is 74.8 µM (inactive); in assay [2], > 100 µM (inactive); in assay [3], > 100 µM; in assay [4], > 100 µM (inactive); in assay [5] it was > 100 µM (inactive); in [6], > 100 µM (inactive). In addition, the GI50 in [7], in assay [8], in assay [9], in assay [10], in assay [11] and in assay [12] was > 100 µM (inactive) in each case. Moreover, the GI50 in assay [13] and in assay [14] was > 100 µM (inactive) in each case.
For the compound `COc1ccc(/C=N/NC(=O)CSc2nc(-c3ccccc3)c(-c3ccccc3)[nH]2)cc1OC`, the GI50 in assay [1] is 31.3 µM (inactive); in assay [2] it was 34.7 µM (inactive); in assay [3] it was 26.9 µM; in assay [4] it was 39.3 µM (inactive); in [5], 42.1 µM (inactive); in [6] it was 28.8 µM (inactive). Moreover, the GI50 in [7] is 19.5 µM (inactive); in assay [8] it was 30.3 µM (inactive); in [9], 28.6 µM (inactive); in assay [10], 50 µM (inactive); in assay [11], 41 µM (inactive); in [12] it was 17.5 µM (inactive). The GI50 in assay [13] was 30.1 µM (inactive); in assay [14] it was 29.9 µM (inactive).
As to `O/N=C1/CCCCCC1NO` (configuration not stated), the GI50 was > 100 µM (inactive) in [1]; > 100 µM (inactive) in assay [15]; > 100 µM in [3]; > 100 µM (inactive) in assay [4]; > 100 µM (inactive) in assay [5]; > 100 µM (inactive) in [6]. Also, the GI50 in assay [16], in assay [17], in [7], in [8], in [9] and in assay [18] was > 100 µM (inactive) in each case. The GI50 in assay [10], in assay [11], in assay [12], in [13] and in assay [19] was > 100 µM (inactive) each time.
Regarding `COc1ccc([C@@]23CCC(=O)C[C@@H]2N(C)CC3)cc1OC`, the GI50 in [1] is > 100 µM (inactive); in assay [2], > 100 µM (inactive); in assay [15], > 100 µM (inactive); in [3] it was > 100 µM; in assay [4] it was > 100 µM (inactive); in assay [5], > 100 µM (inactive). Besides, the GI50 in assay [6], in assay [16], in assay [17], in assay [7], in assay [8] and in [9] was > 100 µM (inactive) throughout. Besides, the GI50 in assay [18], in assay [10], in assay [11], in [12], in assay [14] and in [19] was > 100 µM (inactive) throughout.
For `CN1CCN(C2=C(Cl)C3(OCCS3)C(F)(F)C2(F)F)CC1` (configuration not stated), the GI50 in assay [1] was > 100 µM (inactive); in [2] it was > 100 µM (inactive); in assay [15], > 100 µM (inactive); in assay [3], 79.6 µM; in assay [4] it was 46.9 µM (inactive); in assay [5], 66.5 µM (inactive). In addition, the GI50 was > 100 µM (inactive) in [6]; 82 µM (inactive) in [16]; > 100 µM (inactive) in assay [17]; > 100 µM (inactive) in assay [7]; 27.1 µM (inactive) in assay [8]; 79.6 µM (inactive) in [18]. Further, the GI50 in [10] was > 100 µM (inactive); in [12], 16.6 µM (inactive); in [13], > 100 µM (inactive); in assay [14], 51.3 µM (inactive); in [19], 9.35 µM (inactive).
Regarding `O=CCOCc1cc2c(cc1Br)OCO2`, the GI50 in [1] was 23.1 µM (inactive); in [2] it was 9.93 µM (inactive); in assay [15], 28.2 µM (inactive); in [3] it was 21.9 µM; in assay [4], > 100 µM (inactive); in assay [5], 43.9 µM (inactive). Further, the GI50 was 32.8 µM (inactive) in [6]; 19.7 µM (inactive) in assay [16]; > 100 µM (inactive) in assay [17]; 11.8 µM (inactive) in [8]; > 100 µM (inactive) in [9]; 21 µM (inactive) in assay [18]. Further, the GI50 in [10] is 18.6 µM (inactive); in [11] it was 37.9 µM (inactive); in assay [12], 19.3 µM (inactive); in [13], 34.5 µM (inactive); in assay [14] it was 48.9 µM (inactive); in assay [19], 21 µM (inactive).
Regarding `CC(C)(Oc1ccccc1)C(=O)Sc1c(-c2ccccc2)c(=O)n(-c2ccccc2)c(=S)n1-c1ccccc1`, the GI50 in assay [1] was 33.1 µM (inactive); in [2], 25.9 µM (inactive); in [15], 95.9 µM (inactive); in assay [3], 56.6 µM; in assay [4], 22 µM (inactive); in assay [5], > 100 µM (inactive). The GI50 in assay [6] is 22.6 µM (inactive); in assay [16] it was 28.8 µM (inactive); in [17], 20.6 µM (inactive); in assay [7], 95.5 µM (inactive); in assay [8], > 100 µM (inactive); in assay [9], 27.3 µM (inactive). Further, the GI50 in assay [18] is 62.7 µM (inactive); in assay [10], 26.9 µM (inactive); in assay [11], 49.7 µM (inactive); in assay [13], 51.3 µM (inactive); in assay [14] it was > 100 µM (inactive); in assay [19] it was 64.3 µM (inactive).
For the compound `CC1OC(OCC2OC(Oc3c(-c4ccc(O)cc4)oc4cc(O)cc(O)c4c3=O)C(OC3OCC(O)(CO)C3O)C(O)C2O)C(O)C(O)C1O` (configuration not stated), the GI50 was > 100 µM (inactive) in [1]; 25.7 µM (inactive) in assay [2]; 22.1 µM in assay [3]; > 100 µM (inactive) in assay [4]; > 100 µM (inactive) in [5]; > 100 µM (inactive) in assay [6]. For the same compound, the GI50 in assay [7] is > 100 µM (inactive); in [8], > 100 µM (inactive); in assay [9], 66.4 µM (inactive); in assay [10], > 100 µM (inactive); in [11], > 100 µM (inactive); in assay [12], > 100 µM (inactive). Further, the GI50 in [13] and in [14] was > 100 µM (inactive) in each case.
With `CCOC(=O)c1oc2c(OC)ccc3c2c1CCC3`, the GI50 in [1] was > 100 µM (inactive); in assay [2], 73.3 µM (inactive); in [3], > 100 µM; in assay [4], > 100 µM (inactive); in assay [5] it was 86.9 µM (inactive); in assay [6], > 100 µM (inactive). For the same compound, the GI50 is > 100 µM (inactive) in assay [7]; 96.4 µM (inactive) in assay [8]; > 100 µM (inactive) in [9]; > 100 µM (inactive) in assay [10]; > 100 µM (inactive) in [11]; > 100 µM (inactive) in [12]. For the same compound, the GI50 in assay [13] was > 100 µM (inactive); in assay [14] it was 77.6 µM (inactive).
In the case of `C[n+]1c(-c2ccc(/C=N/Nc3ccnc(N/N=C/c4ccc(-c5cn6ccccc6[n+]5C)cc4)n3)cc2)cn2ccccc21`, the GI50 in [1] is 25.3 µM (inactive); in assay [3], 98.9 µM; in [4], 43.2 µM (inactive); in assay [6] it was 39.3 µM (inactive); in assay [16], > 100 µM (inactive); in [17] it was > 10 µM (inactive). Besides, the GI50 in [9] was 31.3 µM (inactive); in assay [18] it was 31.9 µM (inactive); in [10] it was 88.9 µM (inactive); in assay [11], 34.7 µM (inactive); in assay [12], 56.4 µM (inactive); in assay [13], > 100 µM (inactive). The values for the GI50 in assay [14] and in assay [19] were 34.7 µM (inactive) and 54.8 µM (inactive), respectively.
Consider `C/C=C/C1=C(Cl)C(=O)[C@@H](Cl)[C@@]1(O)C(=O)OC` [(+)-CRYPTOSPORIPSIN], for which the GI50 in assay [1] is 2.41 µM (inactive); in assay [2] it was 0.912 µM (active); in assay [3], 1.73 µM; in [4], 1.52 µM (inactive); in [5] it was 2.25 µM (inactive); in [6], 5.38 µM (inactive). Moreover, the GI50 in [7] is 2 µM (inactive); in [8], 4.08 µM (inactive); in [9] it was 5.09 µM (inactive); in assay [18], 2.15 µM (inactive); in [10], 10.6 µM (inactive); in assay [11], 7.66 µM (inactive). Moreover, the GI50 in assay [12] is 5.73 µM (inactive); in assay [13], 2.65 µM (inactive); in [14], 7.38 µM (inactive).

The values above are taken from ChEMBL document CHEMBL1201862, “PubChem BioAssay data set” (2004).
